Here are results for 14 compounds from PubChem BioAssay (NCI).

Molecules are shown by their SMILES.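 Five concentrations, 48 hours, 96-well plates. At the GI50, growth is halved. TGI denotes the concentration required for complete inhibition of growth.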

Test systems include DU-145 prostate; HCC-2998 colon; HOP-92 NSCLC; HS 578T breast; LOX IMVI melanoma; NCI-H226 lung; HOP-62 NSCLC; MOLT-4 leukemia; UACC-257 melanoma.
What all share (assay): NCI tumour cell line growth inhibition, 48 h

For the compound `CCC(C)C1NC(=O)C2CCCN2C(=O)C(CC2CO2)OC(=O)CCNC(=O)C(C)N(C)C(=O)C(C(C)C)N(C)C1=O` (configuration not stated), the TGI in the experiment on DU-145 prostate is more than 100 µM; in the experiment with HCC-2998 colon, more than 100 µM; in the experiment on HOP-92 NSCLC, more than 100 µM; with HS 578T breast it was more than 100 µM; in the experiment with LOX IMVI melanoma, 0.118 µM; in the experiment with NCI-H226 lung it was more than 17.1 µM.
Regarding `CC1(C)CCC2(C(=O)OC3OC(CO)C(O)C(O)C3O)CCC3(C)C(=CCC4C5(C)CCC(OC6OC(CO)C(O)C(O)C6O)C(C)(C)C5CCC43C)C2C1` (configuration not stated), the TGI is more than 25 µM in the experiment with DU-145 prostate; 9.83 µM in the experiment on HCC-2998 colon; more than 25 µM in the experiment on HOP-62 NSCLC; more than 25 µM with HOP-92 NSCLC; more than 25 µM with HS 578T breast; 8.51 µM in the experiment on LOX IMVI melanoma. Moreover, the TGI in the experiment on MOLT-4 leukemia is 13.7 µM; with NCI-H226 lung it was more than 25 µM; in the experiment on UACC-257 melanoma it was more than 25 µM.
Regarding `CC(=O)OC1CC(O)CC2=CCC3C4CCC(C(C)(O)C(O)CC5COC(=O)C5C)C4(C)CCC3C21C` (configuration not stated), the TGI in the experiment on DU-145 prostate, in the experiment on HCC-2998 colon, with HOP-62 NSCLC, in the experiment with HOP-92 NSCLC, in the experiment on HS 578T breast and in the experiment on LOX IMVI melanoma was more than 25 µM in each case. The TGI with MOLT-4 leukemia, with NCI-H226 lung and in the experiment with UACC-257 melanoma was more than 25 µM throughout.
As to `O=C1c2cc3c(cc2-c2c1c1ccc(Cl)cc1c(=O)n2C[C@H](O)[C@@H](O)[C@H](O)CO)OCO3`, the GI50 with DU-145 prostate is 0.0374 µM; in the experiment with HCC-2998 colon it was 0.0638 µM; in the experiment with HOP-62 NSCLC it was 0.0186 µM; with HOP-92 NSCLC, 0.069 µM; with HS 578T breast, 0.328 µM; in the experiment with LOX IMVI melanoma, 0.0145 µM. For the same compound, the GI50 in the experiment on MOLT-4 leukemia is less than 0.01 µM; in the experiment with UACC-257 melanoma it was 0.0771 µM. Moreover, the TGI is more than 100 µM with DU-145 prostate; 0.479 µM in the experiment on HCC-2998 colon; 0.341 µM in the experiment on HOP-62 NSCLC; 0.666 µM in the experiment with HOP-92 NSCLC; more than 100 µM in the experiment on HS 578T breast; 0.103 µM in the experiment with LOX IMVI melanoma. Moreover, the TGI with MOLT-4 leukemia turned out to be 12.5 µM; in the experiment on UACC-257 melanoma, 0.396 µM.
`CCOC(=O)/C(=C\NCC(OCC)OCC)c1nc2ccccc2[nH]1`: the TGI was more than 100 µM in the experiment with DU-145 prostate; 51.3 µM in the experiment with HCC-2998 colon; more than 100 µM in the experiment on HOP-62 NSCLC; more than 100 µM in the experiment on HOP-92 NSCLC; more than 100 µM in the experiment with HS 578T breast; 55.4 µM with LOX IMVI melanoma. The TGI with MOLT-4 leukemia was 41.3 µM; with NCI-H226 lung it was more than 100 µM; in the experiment with UACC-257 melanoma, 58.7 µM.
As for `COC(=O)C1C(O)CCC2CN3CCc4c([nH]c5cccc(OC)c45)C3CC21` (configuration not stated), the TGI in the experiment with DU-145 prostate, in the experiment on HCC-2998 colon, with HOP-62 NSCLC, with HOP-92 NSCLC, in the experiment with HS 578T breast and in the experiment with LOX IMVI melanoma was more than 100 µM each time. The TGI in the experiment on MOLT-4 leukemia, in the experiment with NCI-H226 lung and in the experiment on UACC-257 melanoma was more than 100 µM in each case.
Consider `O=S(=O)(/N=C(\NO)Nc1ccc(Cl)cc1)c1ccc(S(=O)(=O)c2ccccc2)s1`, for which the TGI in the experiment on DU-145 prostate worked out at 46 µM; in the experiment on HCC-2998 colon, 29.7 µM; in the experiment with HOP-62 NSCLC, 82.8 µM; in the experiment on HOP-92 NSCLC, 31.3 µM; with HS 578T breast, 96.9 µM; in the experiment with LOX IMVI melanoma it was 29.3 µM. Moreover, the results for the TGI with MOLT-4 leukemia, in the experiment on NCI-H226 lung and in the experiment on UACC-257 melanoma were 35.9 µM, 52.1 µM and 41 µM, respectively.
Consider `Cc1cc(O)c(C(C)C)cc1CN1CCCCC1`, for which the TGI with DU-145 prostate, in the experiment on HCC-2998 colon, with HOP-62 NSCLC, in the experiment with HOP-92 NSCLC, in the experiment on HS 578T breast and in the experiment on LOX IMVI melanoma was more than 100 µM throughout. Also, the TGI with MOLT-4 leukemia, in the experiment with NCI-H226 lung and with UACC-257 melanoma was more than 100 µM each time.
`O=S(=O)(O)c1cccc2c(N=Nc3c(O)ccc4ccccc34)cccc12`: the TGI with DU-145 prostate, with HOP-62 NSCLC, in the experiment on HOP-92 NSCLC, in the experiment with HS 578T breast, with LOX IMVI melanoma and in the experiment with MOLT-4 leukemia was more than 100 µM in each case. The TGI with NCI-H226 lung and in the experiment with UACC-257 melanoma was more than 100 µM each time.
As to `CS(=O)(=O)c1nc(-c2cc3c(c(S(C)(=O)=O)n2)CCCC3)cc2c1CCCC2`, the TGI was more than 100 µM with DU-145 prostate; more than 100 µM with HCC-2998 colon; more than 57.7 µM with HOP-62 NSCLC; more than 33 µM in the experiment with HS 578T breast; more than 100 µM in the experiment with LOX IMVI melanoma; more than 100 µM in the experiment on MOLT-4 leukemia. Moreover, the TGI in the experiment with NCI-H226 lung and in the experiment with UACC-257 melanoma was more than 100 µM each time.
On to `O=[N+]([O-])c1ccc2c(c1)c(N=NC(=S)NC1CCCCC1)c(O)n2CN1CCOCC1`, for which the TGI worked out at 26.8 µM with DU-145 prostate; 17.6 µM with HCC-2998 colon; 23.8 µM in the experiment with HOP-62 NSCLC; 12.9 µM with HOP-92 NSCLC; 45.8 µM with HS 578T breast; 19.3 µM in the experiment on LOX IMVI melanoma. In addition, the TGI with MOLT-4 leukemia was more than 100 µM; in the experiment on NCI-H226 lung it was 66 µM; with UACC-257 melanoma, 22.7 µM.
As for `N[C@H]1CCN(c2c(F)cc3c(=O)c(C(=O)O)cn4c3c2Oc2cc3c(ccc5ccccc53)cc2-4)C1`, the TGI is more than 100 µM with DU-145 prostate; 6.82 µM with HCC-2998 colon; more than 100 µM in the experiment on HOP-62 NSCLC; 6.29 µM in the experiment on HOP-92 NSCLC; more than 100 µM in the experiment with LOX IMVI melanoma; more than 100 µM with MOLT-4 leukemia. Further, the TGI in the experiment on NCI-H226 lung was 58.5 µM; in the experiment with UACC-257 melanoma, more than 100 µM.
Regarding `NCCNc1nc(N2CCCC2)c2nc(Cl)c(NCc3ccccc3)nc2n1`, the TGI was found to be 3.55 µM in the experiment on DU-145 prostate; 2.88 µM with HCC-2998 colon; 3.64 µM in the experiment on HOP-62 NSCLC; 6.1 µM in the experiment with HOP-92 NSCLC; 12.8 µM in the experiment on HS 578T breast; 3.06 µM in the experiment on LOX IMVI melanoma. The values for the TGI with MOLT-4 leukemia, with NCI-H226 lung and in the experiment on UACC-257 melanoma were 4.48 µM, 15.7 µM and 4 µM, respectively.
On to `O=C(O)C(CSC(c1ccccc1)(c1ccccc1)c1ccccc1)N=Cc1cccs1` (configuration not stated), for which the TGI in the experiment with DU-145 prostate is more than 38.1 µM; with HCC-2998 colon, 27.7 µM; with HOP-62 NSCLC, more than 100 µM; in the experiment on HOP-92 NSCLC, more than 84 µM; in the experiment with HS 578T breast, more than 34.2 µM; in the experiment with LOX IMVI melanoma, more than 59.8 µM. Moreover, the TGI with MOLT-4 leukemia is more than 75.7 µM; in the experiment on NCI-H226 lung, more than 96.7 µM; in the experiment with UACC-257 melanoma it was more than 100 µM.
